Data from patent US20260001893A1, “SMALL MOLECULE MODULATORS OF STAT6” (Gilead Sciences, Inc., priority 2024, published 2026).

System: Eotaxin-3 (CCL26) release in human whole blood stimulated with IL-4
Experiment: Human whole blood eotaxin-3 assay (IL-4 stimulated eotaxin-3 release)
Assay type: cell-based
Conditions: Homo sapiens, 48 h, human whole blood stimulated with recombinant human IL-4, 48 h, geometric mean; for EC50: inhibition of eotaxin-3 release, given for test compounds with >80% Emax; for Emax: given for test compounds with <80% Emax
Method in brief: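 Eotaxin-3 (CCL26) release was quantified by MSD immunoassay in supernatants of human heparinised whole blood after 48 h at 37° C with IL-4 ([…] final). Compounds, in 4-fold dilutions at 0.5% DMSO, were added 2 h before stimulation.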

EC50 | SMILES | Emax
12.9 nM | [2H]C([2H])([2H])N(C(=O)c1ccc(C2CCN([C@@H](C)c3cc4c(-n5ccc(NC)cc5=O)ccnc4n3C)CC2)cc1)C([2H])([2H])[2H] [Example 1m74, (S)—N,N-bis(methyl-d3)-4-(1-(1-(1-methyl-4-(4-(methylamino)-2-oxopyridin-1 (2H)-yl)-1H-pyrrolo[2,3-b]pyridin-2-yl)ethyl)piperidin-4-yl)benzamide] | –
60.1 nM | [2H]C([2H])([2H])N(C(=O)c1ccc(C2CCN([C@@H](C)c3cc4c(-n5ccc6[nH]nc(C(F)(F)F)c6c5=O)ccnc4n3C)CC2)cc1)C([2H])([2H])[2H] [Example 1m147, (S)—N,N-bis(methyl-d3)-4-(1-(1-(1-methyl-4-(4-oxo-3-(trifluoromethyl)-1,4-dihydro-5H-pyrazolo[4,3-c]pyridin-5-yl)-1H-pyrrolo[2,3-b]pyridin-2-yl)ethyl)piperidin-4-yl)benzamide] | –
11.5 nM | C[C@@H](c1cc2c(-n3ccc4c(c3=O)CCN4)ccnc2n1C)N1CC=C(c2c(F)cc(C(=O)N(C)C)cc2F)CC1 [Example 1m122, (S)-3,5-difluoro-N,N-dimethyl-4-(1-(1-(1-methyl-4-(4-oxo-1,2,3,4-tetrahydro-5H-pyrrolo[3,2-c]pyridin-5-yl)-1H-pyrrolo[2,3-b]pyridin-2-yl)ethyl)-1,2,3,6-tetrahydropyridin-4-yl)benzamide] | –
18.4 nM | C[C@@H](c1cc2c(-n3ccc4c(c3=O)CCN4)ccnc2n1C)N1CCC(c2ccc(C(=O)N(C)C)cc2)CC1 [Example 1m82, (S)—N,N-dimethyl-4-(1-(1-(1-methyl-4-(4-oxo-1,2,3,4-tetrahydro-5H-pyrrolo[3,2-c]pyridin-5-yl)-1H-pyrrolo[2,3-b]pyridin-2-yl)ethyl)piperidin-4-yl)benzamide] | –
– | CN(C)C(=O)c1ccc(C2=CCN(Cc3cc4c(-n5ccc6c(c5=O)CCN6)ccnc4n3C)CC2)cn1 [Example 1m70, N,N-dimethyl-1′-((1-methyl-4-(4-oxo-1,2,3,4-tetrahydro-5H-pyrrolo[3,2-c]pyridin-5-yl)-1H-pyrrolo[2,3-b]pyridin-2-yl)methyl)-1′, 2′, 3′, 6′-tetrahydro-[3,4′-bipyridine]-6-carboxamide] | 20 to 30%
27.1 nM | Cc1cc(C(=O)N(C)C)cc(F)c1C1CCN(Cc2cc3c(-n4ccc5c(c4=O)CCN5)ccnc3n2C)CC1 [Example 1m103, 3-fluoro-N,N,5-trimethyl-4-(1-((1-methyl-4-(4-oxo-1,2,3,4-tetrahydro-5H-pyrrolo[3,2-c]pyridin-5-yl)-1H-pyrrolo[2,3-b]pyridin-2-yl)methyl)piperidin-4-yl)benzamide] | –
12.2 nM | Cc1cc(C(=O)N(C)C)cc(F)c1C1=CCN(Cc2cc3c(-n4cc(F)c(N)cc4=O)ccnc3n2C)CC1 [Example 1ad10, 4-(1-((4-(4-amino-5-fluoro-2-oxopyridin-1 (2H)-yl)-1-methyl-1H-pyrrolo[2,3-b]pyridin-2-yl)methyl)-1,2,3,6-tetrahydropyridin-4-yl)-3-fluoro-N,N,5-trimethylbenzamide] | –
5.21 nM | [2H]C([2H])([2H])N(C(=O)c1cc(C)c(C2=CCN(Cc3cc4c(-n5ccc(N)cc5=O)ccnc4n3C)CC2)c(F)c1)C([2H])([2H])[2H] [Example 1ad5, 4-[1-[[4-(4-Amino-2-oxo-1-pyridyl)-1-methyl-pyrrolo[2,3-b]pyridin-2-yl]methyl]-3,6-dihydro-2H-pyridin-4-yl]-3-fluoro-5-methyl-N,N-bis(trideuteriomethyl)-benzamide] | –
55.2 nM | CNc1nc(=O)n(-c2ccnc3c2cc(CN2CCC(c4c(F)cc(C(=O)N(C)C)cc4F)CC2)n3C)cc1F [Example 1m118, 3,5-difluoro-4-(1-((4-(5-fluoro-4-(methylamino)-2-oxopyrimidin-1 (2H)-yl)-1-methyl-1H-pyrrolo[2,3-b]pyridin-2-yl)methyl)piperidin-4-yl)-N,N-dimethylbenzamide] | –
229 nM | CNc1ccn(-c2ccnc3c2cc([C@H](C)N2CC=C(c4c(C)cc(C(=O)N(C)C)cc4F)CC2)n3C)c(=O)c1OC [Example 1m138, (S)-3-fluoro-4-(1-(1-(4-(3-methoxy-4-(methylamino)-2-oxopyridin-1 (2H)-yl)-1-methyl-1H-pyrrolo[2,3-b]pyridin-2-yl)ethyl)-1,2,3,6-tetrahydropyridin-4-yl)-N,N,5-trimethylbenzamide] | –
2900 nM | CN(C)C(=O)c1cc(F)c(C2=CCN(Cc3cc4c(-n5ccc6c(c5=O)CCN6)ccnc4n3C)CC2)cc1C1CC1 (single isomer, unassigned) [Example 1m134, 2-cyclopropyl-5-fluoro-N,N-dimethyl-4-(1-((1-methyl-4-(4-oxo-1,2,3,4-tetrahydro-5H-pyrrolo[3,2-c]pyridin-5-yl)-1H-pyrrolo[2,3-b]pyridin-2-yl)methyl)-1,2,3,6-tetrahydropyridin-4-yl)benzamide] | –
855 nM | CNc1ccn(-c2ccnc3c2cc([C@@H](C)N2CC[C@@H](c4c(C)cc(C(=O)N(C)C)cc4F)C(F)(F)C2)n3C)c(=O)c1 (single isomer, unassigned) [Example 1m143] | –
3.76 nM | [2H]C([2H])([2H])N(C(=O)c1cc(C)c(C2=CCN([C@@H](C)c3cc4c(-n5ccc(N)cc5=O)ccnc4n3C)CC2)c(F)c1)C([2H])([2H])[2H] [Example 1m93, (S)-4-(1-(1-(4-(4-amino-2-oxopyridin-1 (2H)-yl)-1-methyl-1H-pyrrolo[2,3-b]pyridin-2-yl)ethyl)-1,2,3,6-tetrahydropyridin-4-yl)-3-fluoro-5-methyl-N,N-bis(methyl-d3)benzamide] | –
50.2 nM | CNc1ccn(-c2ccnc3c2cc(C(C)N2CC=C(c4c(C)cc(C(=O)N(C)C)cc4F)C(F)(F)C2)n3C)c(=O)c1 (stereo not shown) [Example 1m139, 4-(3,3-difluoro-1-(1-(1-methyl-4-(4-(methylamino)-2-oxopyridin-1 (2H)-yl)-1H-pyrrolo[2,3-b]pyridin-2-yl)ethyl)-1,2,3,6-tetrahydropyridin-4-yl)-3-fluoro-N,N,5-trimethylbenzamide] | –
– | [2H]C([2H])([2H])N(C(=O)c1ccc(C2CCN(Cc3cc4c(-n5ccc6c(c5=O)CCN6)ccnc4n3C)CC2)cc1)C([2H])([2H])[2H] [Example 1d24, 4-[1-[[1-Methyl-4-(4-oxo-2,3-dihydro-1H-pyrrolo[3,2-c]pyridin-5-yl)pyrrolo[2,3-b]pyridin-2-yl]methyl]-4-piperidyl]-N,N-bis(trideuteriomethyl)benzamide] | 70 to 80%
75.2 nM | CN(C)C(=O)c1cc(F)c(C2CCN(Cc3cc4c(-n5cc(F)c6c(c5=O)CCN6)ccnc4n3C)CC2)c(F)c1 [Example 1m133, 3,5-difluoro-4-(1-((4-(7-fluoro-4-oxo-1,2,3,4-tetrahydro-5H-pyrrolo[3,2-c]pyridin-5-yl)-1-methyl-1H-pyrrolo[2,3-b]pyridin-2-yl)methyl)piperidin-4-yl)-N,N-dimethylbenzamide] | –
45.5 nM | CNc1ccn(-c2ccnc3c2cc(CN2CCC(c4c(F)cc(C(=O)N(C)C)cc4F)CC2)n3C)c(=O)c1 [Example 1m91, 3,5-difluoro-N,N-dimethyl-4-(1-((1-methyl-4-(4-(methylamino)-2-oxopyridin-1 (2H)-yl)-1H-pyrrolo[2,3-b]pyridin-2-yl)methyl)piperidin-4-yl)benzamide] | –
– | [2H]C([2H])([2H])N(C(=O)c1ccc(C2=CCN(Cc3cc4c(-n5ccc6c(c5=O)CCN6)ccnc4n3C)CC2)cc1)C([2H])([2H])[2H] [Example 1af63, N,N-Bis(methyl-d3)-4-(1-((1-methyl-4-(4-oxo-1,2,3,4-tetrahydro-5H-pyrrolo[3,2-c]pyridin-5-yl)-1H-pyrrolo[2,3-b]pyridin-2-yl)methyl)-1,2,3,6-tetrahydropyridin-4-yl)benzamide] | 30 to 40%
– | [2H]C([2H])([2H])N(C(=O)c1ccc(C2CCN(Cc3cc4c(-n5ccc(N)c(C)c5=O)ccnc4n3C)CC2)cc1)C([2H])([2H])[2H] [Example 1d22, 4-[1-[[4-(4-Amino-3-methyl-2-oxo-1-pyridyl)-1-methyl-pyrrolo[2,3-b]pyridin-2-yl]methyl]-4-piperidyl]-N,N-bis(trideuteriomethyl)benzamide] | 70 to 80%
2.67 nM | [2H]C([2H])([2H])N(C(=O)c1cc(C)c(C2=CCN([C@@H](C)c3cc4c(-n5ccc(NC)cc5=O)ccnc4n3C)CC2)c(F)c1)C([2H])([2H])[2H] [Example 1af83, (S)-3-fluoro-5-methyl-N,N-bis(methyl-d3)-4-(1-(1-(1-methyl-4-(4-(methylamino)-2-oxopyridin-1 (2H)-yl)-1H-pyrrolo[2,3-b]pyridin-2-yl)ethyl)-1,2,3,6-tetrahydropyridin-4-yl)benzamide] | –
16.1 nM | CNc1c(F)cn(-c2ccnc3c2cc([C@H](C)N2CC=C(c4c(C)cc(C(=O)N(C)C)cc4F)CC2)n3C)c(=O)c1F [Example 1m140, (S)-4-(1-(1-(4-(3,5-difluoro-4-(methylamino)-2-oxopyridin-1 (2H)-yl)-1-methyl-1H-pyrrolo[2,3-b]pyridin-2-yl)ethyl)-1,2,3,6-tetrahydropyridin-4-yl)-3-fluoro-N,N,5-trimethylbenzamide] | –
– | CNc1ccn(-c2ccnc3c2cc(CN2CC[C@@H](c4ccc(C(=O)N(C)C)cc4)C[C@@H]2C)n3C)c(=O)c1 (single isomer, unassigned) [Example 1d40] | < 20%
28.8 nM | CNc1ccn(-c2ccnc3c2cc(CN2CC=C(c4c(F)cc(C(=O)N(C)C)cc4F)CC2)n3C)c(=O)c1 [Example 1m90, 3,5-difluoro-N,N-dimethyl-4-(1-((1-methyl-4-(4-(methylamino)-2-oxopyridin-1 (2H)-yl)-1H-pyrrolo[2,3-b]pyridin-2-yl)methyl)-1,2,3,6-tetrahydropyridin-4-yl)benzamide] | –
440 nM | CNc1ccn(-c2ccnc3c2cc([C@@H](C)N2CC=C(c4c(C)cc(C(=O)N(C)C)nc4C)CC2)n3C)c(=O)c1 (single isomer, unassigned) [Example 1m100] | –
524 nM | C[C@@H](c1cc2c(-n3ccc(N)c(F)c3=O)ccnc2n1C)N1CC=C(c2ccc(C(=O)N(C)C)cn2)CC1 (single isomer, unassigned) [Example 1m77] | –
